Broadly, the EC50 is the concentration needed to bring the measured effect to its halfway point. As a reminder, the EC90 is the point of the concentration-response curve where the effect stands at 90%. A higher EC90 goes with weaker potency. The term IC50 denotes the concentration that inhibits the measured activity by half. A higher IC50 goes with a need for much substance.

Experimental findings from patent publication US7648967B2, “Mutagenic nucleoside analogs for the treatment of viral disease” (priority 2001, dated 2010) are described below.

The structures appear in SMILES notation. Like-named read-outs stand apart in the source and are kept apart here. Some results are limits rather than exact numbers.

Assay [1] has as its system BVDV. The assay is described as follows: Antiviral activity against BVDV by passaging virus in BT cells (CPE and viral titer). It counts as cell-based, bovine viral diarrhea virus. As to conditions: for viral replication: after a single passage. On the procedure: (§1) Cytotoxicity was assayed using graded amounts of nucleoside analog in CV-1 cells or BT cells. 100 pfu of virus was inoculated in 10^5 CV-1 cells (MV) or BT cells (BVDV). Antiviral activity against MV or BVDV (an HCV surrogate) was tested by passaging the virus in the presence or absence of analog.
(§2) In screening experiments, replication of MV or BVDV was assessed by cytopathic effect (CPE) and viral titer after growth in cells for three to four days in the presence or absence of drug. […] Experiments were performed in triplicate (see FIGS. 2 and 4).

The subject of assay [2] is measles virus (MV). The assay is described as follows: Antiviral activity against MV by passaging virus in CV-1 cells (CPE and viral titer). Type of assay: cell-based. On the procedure:
as §1, §2

In assay [3] the test system is BVDV. The assay is described as follows: Sequencing of BVDV glycoprotein fragment for viral mutagenesis. It counts as cell-based, bovine viral diarrhea virus. As to conditions: 2 mM, passage 1, BVDV glycoprotein fragment, vs DMSO control. Here is the method:
Fragment of 1 kb glycoprotein gene of clones BVDV at passage 1, BVDV treated with 2 mM 5-formyl-uridine vs. DMSO control.
(§3) For 5-formyl-uridine, sequencing was performed to confirm that viral extinction was due to viral mutagenesis by the nucleoside. Clones of MV were selected from treated and control virus at passage 4 and a 1 kb fragment of the matrix and a 1.7 kb fragment of the polymerase were sequenced. […] A fragment of the BVDV glycoprotein was also sequenced, in which the BVDV virus was treated with 2 mM 5-formyl-uridine.

The test system of assay [4] is measles virus (MV). The assay is described as follows: Sequencing of MV clones (matrix and polymerase fragments) for viral mutagenesis. It counts as cell-based. As to conditions: 0.15 mM, passage 4, 1 kb matrix and 1.7 kb polymerase fragments, vs DMSO control. Here is the method: Fragment of 1 kb of matrix gene and 1.7 kb of polymerase of cones MV at passage 4, MV treated with 0.15 mM 5-formyl uridine vs. DMSO control.
as §3

In a further assay the test system is CV-1 cells or BT cells. Put plainly: Cytotoxicity with graded amounts of nucleoside analog. Type of assay: cell-based. As to conditions: Cercopithecidae, cell line (CV-1 or BT) not specified. On the procedure:
as §1

The mark [5] stands for this setting: Bovine viral diarrhea virus isolates and strains.
[6] abbreviates: concentration of 0.5 mM, within one passage.

For `Nc1[nH]c(=O)nc2c1ncn2[C@@H]1O[C@H](CO)[C@@H](O)[C@H]1O` [isoguanosine], the viral replication entry in the assay with BVDV [1] (BVDV) is listed as “inhibited”. Further, in the assay with BVDV [1] (setting [5]), the response was half-maximal at 80 µM (EC50).
For `Nc1nc(N)c2ncn([C@@H]3O[C@H](CO)[C@@H](O)[C@H]3O)c2n1` [2,6 diaminopurine riboside], in the assay with BVDV [1] (BVDV), the viral replication entry is “inhibited”. Also, in the assay with BVDV [1] (BVDV, read-out: EC50), the concentration for a half-maximal effect (EC50) came out at 70 µM.
In the assay on measles virus (MV) [2] (Measles morbillivirus, CV-1), `O=Cc1cn([C@@H]2O[C@H](CO)[C@@H](O)[C@H]2O)c(=O)[nH]c1=O` [5-formyl-uridine] returned an EC50 of 150 µM and a concentration for an effect of 90% (EC90) of 300 µM. Further, in the assay with measles virus (MV) [2] (setting [6]), the “inhibition of MV replication” value is reported as “completely inhibited”. In addition, in the assay with BVDV [3], the increase in mutation was determined as 3.75 fold. For the same compound, the “mutation rate above the spontaneous mutation rate of MV” value in the assay with measles virus (MV) [4] is reported as 1.6 fold. Besides, the half-maximal inhibitory concentration (IC50) with CV-1 cells or BT cells is over 1000 µM. In the assay on BVDV [1] (setting [5]), this compound displayed an EC50 of 150 µM and an EC90 of 400 µM. The “inhibition of BVDV replication” value in the assay with BVDV [1] (setting [6]) is given as “completely inhibited”.
